Legend:
[1] = biological target: T1, recombinant human 17β-HSD2 (Homo sapiens, UniProt P37059); assay: Inhibition of recombinant human 17β-HSD2 (estradiol to estrone conversion, HPLC/radioactivity); format: biochemical; details: compound 1 μM; 50 nM estradiol, 1 mM NADH, 30 min RT
T1 construct: made in house; host or cells: Sd9 (Sf9) insect cells, baculovirus (Bac to Bac Expression System)
T1 sequence (P37059 1-387): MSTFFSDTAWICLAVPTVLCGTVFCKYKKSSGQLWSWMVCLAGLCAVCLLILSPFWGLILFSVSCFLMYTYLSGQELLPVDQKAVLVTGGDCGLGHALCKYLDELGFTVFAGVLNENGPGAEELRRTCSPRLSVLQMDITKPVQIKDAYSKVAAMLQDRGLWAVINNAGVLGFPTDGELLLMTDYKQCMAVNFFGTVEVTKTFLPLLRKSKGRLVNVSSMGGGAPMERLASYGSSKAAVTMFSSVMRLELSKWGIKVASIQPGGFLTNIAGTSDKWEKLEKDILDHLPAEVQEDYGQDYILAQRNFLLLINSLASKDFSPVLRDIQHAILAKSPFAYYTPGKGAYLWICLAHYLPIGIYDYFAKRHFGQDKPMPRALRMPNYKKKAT
How it was run: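 Membrane extract of Sf9 cells expressing recombinant human 17β-HSD2 (4 μg/ml), in 20 mM KH2PO4 pH 8.5 with 50 nM ^3H-spiked estradiol and 1 mM NADH, 30 min at RT, 1% DMSO. Compound at 1 μM or 0.1 μM; estrone formation by HPLC radioactivity, % inhibition relative to uninhibited conversion.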

[2] = Metabolic stability assay, human hepatocyte incubations; format: in vitro ADME; details: compound 1 μM, human hepatocytes, 0-60 min at 37° C.; read-out: Human hepatocytes MetStab T½ min
Description: Compound stock solutions of the invention were prepared in […]. Final concentration of DMSO was adjusted to 1% in all samples. The in vitro metabolic stability of the compounds of the invention was determined for exemplified compounds using human hepatocyte incubations; study compounds at concentration of 1 μM were incubated 0, 10, 20, 40 and 60 min at 37° C. Samples were collected at all time points and compounds were detected by LC-MS/MS analysis. The percent compound remaining is calculated by comparing the peak area of the parent compound at each time point to time zero. In vitro metabolic stability was determined as half life (T1/2), which was determined by regression analysis of the percent parent disappearance vs. time curve.

Structure (SMILES)	inhibition at 1 µM [1] [%]	half-life at 1 μM [2] [min]
COc1ccc(NC(=O)CC[C@@H]2c3c[nH]nc3[C@@]3(C)CCC4c5cccc(F)c5CCC4C23)nc1 (stereo partly drawn) [Compound 21, 3-((8aS,12S)-3-fluoro-8a-methyl-1,2,6b,7,8,8a,10,12,12a,12b-decahydronaphtho[2′,1′:4,5]indeno[1,2-c]pyrazol-12-yl)-N-(5-methoxypyridin-2-yl)propanamide]	4	40
CCN(CC)C(=O)CC[C@@H]1c2c[nH]nc2[C@@]2(C)CCC3c4cccc(F)c4CCC3C12 (stereo partly drawn) [Compound 216, N,N-diethyl-3-((8aS,12S)-3-fluoro-8a-methyl-1,2,6b,7,8,8a,10,12,12a,12b-decahydronaphtho[2′,1′:4,5]indeno[1,2-c]pyrazol-12-yl)propanamide]	6	8
CN1CCN(c2ccc(NC(=O)CC[C@@H]3c4c[nH]nc4[C@@]4(C)CCC5c6cccc(F)c6CCC5C34)nc2)CC1 (stereo partly drawn) [Compound 42, 3-((8aS,12S)-3-fluoro-8a-methyl-1,2,6b,7,8,8a,10,12,12a,12b-decahydronaphtho[2′,1′:4,5]indeno[1,2-c]pyrazol-12-yl)-N-(5-(4-methylpiperazin-1-yl)pyridin-2-yl)propanamide]	34	47
C[C@]12CCC3c4cccc(F)c4CCC3C1[C@H](CCC(=O)N1CCC3(CCOCC3)C1)c1c[nH]nc12 (stereo partly drawn) [Compound 219, 3-((8aS,12S)-3-fluoro-8a-methyl-1,2,6b,7,8,8a,10,12,12a,12b-decahydronaphtho[2′,1′:4,5]indeno[1,2-c]pyrazol-12-yl)-1-(8-oxa-2-azaspiro[4.5]decan-2-yl)propan-1-one]	3	7
C[C@]12CCC3c4ccccc4CCC3C1[C@H](CCC(=O)Nc1ccc(F)cn1)c1c[nH]nc12 (stereo partly drawn) [Compound 159, N-(5-fluoropyridin-2-yl)-3-((8aS,12S)-8a-methyl-1,2,6b,7,8,8a,10,12,12a,12b-decahydronaphtho[2′,1′:4,5]indeno[1,2-c]pyrazol-12-yl)propanamide]	3	77
C[C@]12CCC3c4ccccc4CCC3C1[C@H](CCC(=O)Nc1ccccn1)c1c[nH]nc12 (stereo partly drawn) [Compound 171, 3-((8aS,12S)-8a-methyl-1,2,6b,7,8,8a,10,12,12a,12b-decahydronaphtho[2′,1′:4,5]indeno[1,2-c]pyrazol-12-yl)-N-(pyridin-2-yl)propanamide]	-1	73
CC(C)c1ccc(NC(=O)CC[C@@H]2c3c[nH]nc3[C@@]3(C)CCC4c5ccccc5CCC4C23)nc1 (stereo partly drawn) [Compound 138, N-(5-isopropylpyridin-2-yl)-3-((8aS,12S)-8a-methyl-1,2,6b,7,8,8a,10,12,12a,12b-decahydronaphtho[2′,1′:4,5]indeno[1,2-c]pyrazol-12-yl)propanamide]	7	51
C[C@]12CCC3c4cccc(F)c4CCC3C1[C@H](CCC(=O)Nc1ccccn1)c1c[nH]nc12 (stereo partly drawn) [Compound 18, 3-((8aS,12S)-3-fluoro-8a-methyl-1,2,6b,7,8,8a,10,12,12a,12b-decahydronaphtho[2′,1′:4,5]indeno[1,2-c]pyrazol-12-yl)-N-(pyridin-2-yl)propanamide]	1	41
Cn1ccc(NC(=O)CC[C@@H]2c3c[nH]nc3[C@@]3(C)CCC4c5cccc(F)c5CCC4C23)n1 (stereo partly drawn) [Compound 54, 3-((8aS,12S)-3-fluoro-8a-methyl-1,2,6b,7,8,8a,10,12,12a,12b-decahydronaphtho[2′,1′:4,5]indeno[1,2-c]pyrazol-12-yl)-N-(1-methyl-1H-pyrazol-3-yl)propanamide]	8	68
C[C@]12CCC3c4ccc(F)cc4CCC3C1[C@H](CCC(=O)Nc1ccc(N3CCOCC3)cn1)c1c[nH]nc12 (stereo partly drawn) [Compound 96, 3-((8aS,12S)-4-fluoro-8a-methyl-1,2,6b,7,8,8a,10,12,12a,12b-decahydronaphtho[2′,1′:4,5]indeno[1,2-c]pyrazol-12-yl)-N-(5-morpholinopyridin-2-yl)propanamide]	5	75
C[C@]12CCC3c4cccc(F)c4CCC3C1[C@H](CCC(=O)N1Cc3ccccc3C1)c1c[nH]nc12 (stereo partly drawn) [Compound 57, 3-((8aS,12S)-3-fluoro-8a-methyl-1,2,6b,7,8,8a,10,12,12a,12b-decahydronaphtho[2′,1′:4,5]indeno[1,2-c]pyrazol-12-yl)-1-(isoindolin-2-yl)propan-1-one]	16	58
CC(C)c1ccc(NC(=O)CC[C@@H]2c3c[nH]nc3[C@@]3(C)CCC4c5ccc(F)cc5CCC4C23)nc1 (stereo partly drawn) [Compound 87, 3-((8aS,12S)-4-fluoro-8a-methyl-1,2,6b,7,8,8a,10,12,12a,12b-decahydronaphtho[2′,1′:4,5]indeno[1,2-c]pyrazol-12-yl)-N-(5-isopropylpyridin-2-yl)propanamide]	6	127
C[C@]12CCC3c4cccc(F)c4CCC3C1[C@H](CCC(=O)NC1CCCCC1)c1c[nH]nc12 (stereo partly drawn) [Compound 207, N-cyclohexyl-3-((8aS,12S)-3-fluoro-8a-methyl-1,2,6b,7,8,8a,10,12,12a,12b-decahydronaphtho[2′,1′:4,5]indeno[1,2-c]pyrazol-12-yl)propanamide]	4	18
C[C@]12CCC3c4cccc(F)c4CCC3C1[C@H](CCC(=O)N1CCCC1)c1c[nH]nc12 (stereo partly drawn) [Compound 210, 3-((8aS,12S)-3-fluoro-8a-methyl-1,2,6b,7,8,8a,10,12,12a,12b-decahydronaphtho[2′,1′:4,5]indeno[1,2-c]pyrazol-12-yl)-1-(pyrrolidin-1-yl)propan-1-one]	0	11
C[C@]12CCC3c4cccc(F)c4CCC3C1[C@H](CCC(=O)Nc1ncccc1F)c1c[nH]nc12 (stereo partly drawn) [Compound 231, 3-((8aS,12S)-3-fluoro-8a-methyl-1,2,6b,7,8,8a,10,12,12a,12b-decahydronaphtho[2′,1′:4,5]indeno[1,2-c]pyrazol-12-yl)-N-(3-fluoropyridin-2-yl)propanamide]	4	29
COc1ccnc(NC(=O)CC[C@@H]2c3c[nH]nc3[C@@]3(C)CCC4c5ccccc5CCC4C23)c1 (stereo partly drawn) [Compound 165, N-(4-methoxypyridin-2-yl)-3-((8aS,12S)-8a-methyl-1,2,6b,7,8,8a,10,12,12a,12b-decahydronaphtho[2′1′:4,5]indeno[1,2-c]pyrazol-12-yl)propanamide]	-2	44
CC(C)c1ccc(NC(=O)CC[C@@H]2c3c[nH]nc3[C@@]3(C)CCC4c5cccc(F)c5CCC4C23)nc1 (stereo partly drawn) [Compound 36, 3-((8aS,12S)-3-fluoro-8a-methyl-1,2,6b,7,8,8a,10,12,12a,12b-decahydronaphtho[2′,1′:4,5]indeno[1,2-c]pyrazol-12-yl)-N-(5-isopropylpyridin-2-yl)propanamide]	8	37
C[C@]12CCC3c4cccc(F)c4CCC3C1[C@H](CCC(=O)N1CCNC(=O)C1)c1c[nH]nc12 (stereo partly drawn) [Compound 24, 4-(3-((8aS,12S)-3-fluoro-8a-methyl-1,2,6b,7,8,8a,10,12,12a,12b-decahydronaphtho[2′,1′:4,5]indeno[1,2-c]pyrazol-12-yl)propanoyl)piperazin-2-one]	1	33
C[C@]12CCC3c4cccc(F)c4CCC3C1[C@H](CCC(=O)Nc1ncc(F)cc1F)c1c[nH]nc12 (stereo partly drawn) [Compound 9, N-(3,5-difluoropyridin-2-yl)-3-((8aS,12S)-3-fluoro-8a-methyl-1,2,6b,7,8,8a,10,12,12a,12b-decahydronaphtho[2′,1′:4,5]indeno[1,2-c]pyrazol-12-yl)propanamide]	3	61
CN(C)C(=O)c1ccc(NC(=O)CC[C@@H]2c3c[nH]nc3[C@@]3(C)CCC4c5ccc(Cl)cc5CCC4C23)nc1 (stereo partly drawn) [Compound 126, 6-(3-((8aS,12S)-4-chloro-8a-methyl-1,2,6b,7,8,8a,10,12,12a,12b-decahydronaphtho[2′,1′:4,5]indeno[1,2-c]pyrazol-12-yl)propanamido)-N,N-dimethylnicotinamide]	12	147
C[C@]12CCC3c4cccc(F)c4CCC3C1[C@H](CCC(=O)Nc1cnccn1)c1c[nH]nc12 (stereo partly drawn) [Compound 51, 3-((8aS,12S)-3-fluoro-8a-methyl-1,2,6b,7,8,8a,10,12,12a,12b-decahydronaphtho[2′,1′:4,5]indeno[1,2-c]pyrazol-12-yl)-N-(pyrazin-2-yl)propanamide]	1	31

— patent US20220041647A1, “ESTRA-1,3,5(10)-TRIENE COMPOUNDS CONDENSED IN POSITION 16(17) WITH A PYRAZOLE RING AS INHIBITORS OF 17-HSD1” (FORENDO PHARMA LTD, priority 2018, published 2022)
